pIC50: −log10 of the molar value. Like-named read-outs stand apart in the source and are kept apart here. Where no end group is shown, it is not given here.
Columns and labels:
C. albicans ATCC 10231 [1] = experiment: Fungal growth inhibition assay; assay type: cell-based, Candida albicans; details: for IC50: unit not in table, µM
Method: (§1) For fungal growth assays, overnight cultures of C. albicans ATCC 10231 cells (yeast peptone dextrose broth, 30°C, shaking at 160 rpm) were pelleted (2000 g, 5 min), washed once in 0.5× potato dextrose broth (BD Biosciences, Franklin Lakes, NJ) and finally resuspended in the same media. Cells were seeded onto a 96-well plate (400 cells, 50 µL) and treated with an equal volume of varying concentrations of defensin in 0.5× potato dextrose broth. After incubating the samples (24 h, 30 °C), the plates were shaken to distribute the cells and growth was determined by performing a 9-well scan (600 nm) using a Spectramax M5e microplate reader (Molecular Devices, San Jose, CA). For assays testing defensin salt tolerance, C. albicans cells were instead resuspended in 1x potato dextrose broth and treated with an equal volume of CpoBD13 + NaCl solution at their intended concentrations. Propidium iodide (PI) uptake assays were performed by preparing the cells as per the standard growth inhibition assay however they were instead seeded onto a U-bottom 96-well plate (50,000 cells, 25 µL). […] For PI uptake experiments performed at a specific pH, the same method was followed with the exception that cells were resuspended in 1× potato dextrose broth while defensin titrations were diluted in 40 mM MES buffer at the intended pH. An example PI uptake gating strategy is presented in Supplementary Fig. 1d.

C. albicans ATCC 10231 [2] = experiment: Propidium iodide uptake assay in pH-buffered conditions (MES buffer); assay type: cell-based, Candida albicans; details: 30 min
Method: as §1

HeLa cells = experiment: MTT/MTS cell viability assay; assay type: cell-based, human; details: 48 h, at the assessed concentrations
Text: Human epithelial cervical cancer (HeLa, ATCC, CCL-2), prostate cancer (PC3, ATCC, CRL-1435) and histiocytic lymphoma (U937, ATCC, CRL-1593.2) cells were obtained from the American Type Culture Collection (Gaithersburg, Maryland) and cultured in RPMI-1640 medium (Thermo Fisher Scientific, Waltham, MA) supplemented with 5–10% (v/v) foetal bovine serum (FBS), 100 U/mL penicillin and 100 U/mL streptomycin (Invitrogen, Carlsbad, CA). Adult human dermal fibroblasts (AHDF, Lonza, CC-2511) cells were obtained from Lonza (Basel, Switzerland) and cultured in Dulbecco’s Modified Eagle Medium (DMEM) (Thermo Fisher Scientific) supplemented with 10% (v/v) FBS, 100 U/mL penicillin and 100 U/mL streptomycin. Human umbilical vein epithelial (HUVEC, Lonza, CC-2519) cells were obtained from Lonza and cultured in EBM-2 medium supplemented with EGM-2 SingleQuots (Lonza). All cell lines were maintained at 37 °C in a humidified incubator with 5% CO2.
Cell viability assays were performed using MTT/MTS as previously described[8].

Liposome pulldown = assay type: binding; details: for Fraction of total protein (%), bound fraction: pH 5.5 (20 mM MES); for Fraction of total protein (%), bound fraction / Fraction of total protein (%), Bound: 1 µg defensin
Method: Liposomes were prepared using natural chicken egg L-α-phophatidylcholine and L-α-phosphatidic acid dissolved in chloroform (Avanti Polar Lipids), and liposome pulldowns (at pH 7.4) and calcein-encapsulated liposome lysis assays were performed as previously described. For liposome pulldowns performed at pH 5.5, the same protocol was used with minor variations. The desiccated lipid films were resuspended in 20 mM MES pH 7.4 and were washed in the same buffer during the centrifugation process. After the final wash step, the liposome pellets were resuspended in 20 mM MES pH 5.5 and incubated with CpoBD13 or mutants thereof (also prepared in the same acidic buffer).

C. albicans ATCC 10231 [3] = experiment: Fungal growth inhibition assay, salt tolerance (NaCl); assay type: cell-based, Candida albicans; details: NaCl concentrations of 100 mM; 24 h
Method: as §1

[4] = PC only liposomes, pH 7.4, replicate 1
[5] = PC only liposomes, pH 7.4, replicate 2
[6] = PC only liposomes, pH 7.4, replicate 3
[7] = PC:PA 95:5 liposomes, pH 7.4, replicate 1
[8] = PC:PA 95:5 liposomes, pH 7.4, replicate 2
[9] = PC:PA 95:5 liposomes, pH 7.4, replicate 3

CpoBD13: saltwater crocodile β-defensin 13, histidine-rich, three disulphide bonds, recombinantly expressed in Pichia pastoris (NGSYYSTLQCRNNHGHCRRLCFHGEQWIGNCNGRHQHCCK; disulfide (positions not given here); also: three disulphide bonds, pairings not given here)
IC50 (C. albicans ATCC 10231 [1]; 24 h, Replicate 1, read-out: IC50): 4.19 µM | IC50 (C. albicans ATCC 10231 [1]; 24 h, Replicate 2, read-out: IC50): 4.11 µM | IC50 (C. albicans ATCC 10231 [1]; 24 h, Replicate 3, read-out: IC50): 4.1 µM | pIC50 (C. albicans ATCC 10231 [1]; 24 h, mean, n = 3, assessed range 0–10 µM, read-out: IC50 of fungal growth inhibition): 5.39 | pIC50 (C. albicans ATCC 10231 [1]; Replicate 1, read-out: IC50): 5.27 | pIC50 (C. albicans ATCC 10231 [1]; Replicate 2, read-out: IC50): 5.27 | pIC50 (C. albicans ATCC 10231 [1]; Replicate 3, read-out: IC50): 5.26 | membrane permeabilising activity (C. albicans ATCC 10231 [2]; pH 5.5): highly effective | membrane permeabilising activity (C. albicans ATCC 10231 [2]; pH 6.5): significantly reduced | membrane permeabilising activity (C. albicans ATCC 10231 [2]; pH 7.5): most dramatic loss of activity | effect on cell viability (HeLa cells): did not affect the viability | Fraction of total protein (%), bound fraction (Liposome pulldown; PC only liposomes, replicate 1): 18.4161% | Fraction of total protein (%), bound fraction (Liposome pulldown; PC only liposomes, replicate 2): 18.4773% | Fraction of total protein (%), bound fraction (Liposome pulldown; PC only liposomes, replicate 3): 29.8053% | Fraction of total protein (%), Bound (Liposome pulldown; [4]): 12.3509% | Fraction of total protein (%), Bound (Liposome pulldown; [5]): 1.776% | Fraction of total protein (%), Bound (Liposome pulldown; [6]): 33.499% | Fraction of total protein (%), Unbound (Liposome pulldown; [4]): 82.3399% | Fraction of total protein (%), Unbound (Liposome pulldown; [5]): 73.2719% | Fraction of total protein (%), Unbound (Liposome pulldown; [6]): 23.4493% | binding to PA-enriched liposomes (Liposome pulldown; PC:PA 95:5, pH 7.4): preferentially bound | Fraction of total protein (%), bound fraction (Liposome pulldown; PC:PA 95:5 liposomes, replicate 1): 88.2406% | Fraction of total protein (%), bound fraction (Liposome pulldown; PC:PA 95:5 liposomes, replicate 2): 92.9019% | Fraction of total protein (%), bound fraction (Liposome pulldown; PC:PA 95:5 liposomes, replicate 3): 89.3441% | Fraction of total protein (%), Bound (Liposome pulldown; [7]): 40.526% | Fraction of total protein (%), Bound (Liposome pulldown; [8]): 42.0716% | Fraction of total protein (%), Bound (Liposome pulldown; [9]): 52.0773% | Fraction of total protein (%), Unbound (Liposome pulldown; [7]): 36.1151% | Fraction of total protein (%), Unbound (Liposome pulldown; [8]): 13.782% | Fraction of total protein (%), Unbound (Liposome pulldown; [9]): 17.5375% | binding to PC only liposomes (Liposome pulldown; pH 7.4): negligible binding | antifungal activity in NaCl (C. albicans ATCC 10231 [3]): retained antifungal activity

Source: article PMC9977887, “Crocodile defensin (CpoBD13) antifungal activity via pH-dependent phospholipid targeting and membrane disruption” (Nature Communications, 2023)
